Measurements from patent US20230157952A1, “METHOD FOR IMPROVING THE STABILITY OF A PHARMACEUTICAL COMPOSITION COMPRISING A HIGH PENETRATION DRUG, AND THE PHARMACEUTICAL COMPOSITION OBTAINED THEREFROM” (Techfields Inc., priority 2020, published 2023).
Blank lines part the entries; values can stand above or below the compound they belong to.

Assay: Effect of concentration on the stability of the solution (purity over time)
Conditions: 25° C.

Structure (SMILES): CCN(CC)CCOC(=O)CCCc1ccc(N(CCCl)CCCl)cc1.Cl
Purity (%) at Day 3 (0.01 wt % in water): 83.1%
Purity (%) at Day 7 (0.01 wt % in water): 72.9%
Purity (%) at hr 0 (0.01 wt % in water): 97.8%
Purity(%) at Day 14 (0.01 wt % in water): 56.9%
Purity(%) at Day 21 (0.01 wt % in water): 43.2%
Purity(%) at Day 28 (0.01 wt % in water): 34.3%
Purity (%) at Day 3 (0.1 wt % in water): 94.1%
Purity (%) at Day 7 (0.1 wt % in water): 89.6%
Purity (%) at hr 0 (0.1 wt % in water): 97.9%
Purity(%) at Day 14 (0.1 wt % in water): 81.5%
Purity(%) at Day 21 (0.1 wt % in water): 73.7%
Purity(%) at Day 28 (0.1 wt % in water): 62.5%
Purity (%) at Day 3 (1 wt % in water): 95.1%
Purity (%) at Day 7 (1 wt % in water): 91.9%
Purity (%) at hr 0 (1 wt % in water): 98.2%
Purity(%) at Day 14 (1 wt % in water): 85.9%
Purity(%) at Day 21 (1 wt % in water): 81.9%
Purity(%) at Day 28 (1 wt % in water): 76.9%
Purity (%) at Day 3 (3 wt % in water): 96.2%
Purity (%) at Day 7 (3 wt % in water): 95.0%
Purity (%) at hr 0 (3 wt % in water): 98.4%
Purity(%) at Day 14 (3 wt % in water): 91.0%
Purity(%) at Day 21 (3 wt % in water): 87.3%
Purity(%) at Day 28 (3 wt % in water): 83.7%
Purity (%) at Day 3 (5 wt % in water): 98.2%
Purity (%) at Day 7 (5 wt % in water): 97.8%
Purity (%) at hr 0 (5 wt % in water): 98.5%
Purity(%) at Day 14 (5 wt % in water): 97.0%
Purity(%) at Day 21 (5 wt % in water): 96.3%
Purity(%) at Day 28 (5 wt % in water): 95.0%
Purity (%) at Day 3 (7 wt % in water): 98.4%
Purity (%) at Day 7 (7 wt % in water): 98.2%
Purity (%) at hr 0 (7 wt % in water): 98.5%
Purity(%) at Day 14 (7 wt % in water): 98.0%
Purity(%) at Day 21 (7 wt % in water): 97.6%
Purity(%) at Day 28 (7 wt % in water): 97.4%
Purity (%) at Day 3 (8 wt % in water): 98. %
Purity (%) at Day 7 (8 wt % in water): 98.3%
Purity (%) at hr 0 (8 wt % in water): 98.5%
Purity(%) at Day 14 (8 wt % in water): 97.9%
Purity(%) at Day 21 (8 wt % in water): 97.7%
Purity(%) at Day 28 (8 wt % in water): 97.3%
Purity (%) at Day 3 (10 wt % in water): 98.5%
Purity (%) at Day 7 (10 wt % in water): 98.3%
Purity (%) at hr 0 (10 wt % in water): 98.6%
Purity(%) at Day 14 (10 wt % in water): 98.2%
Purity(%) at Day 21 (10 wt % in water): 97.7%
Purity(%) at Day 28 (10 wt % in water): 97.4%
Purity (%) at Day 3 (15 wt % in water): 98.5%
Purity (%) at Day 7 (15 wt % in water): 98.4%
Purity (%) at hr 0 (15 wt % in water): 98.6%
Purity(%) at Day 14 (15 wt % in water): 98.1%
Purity(%) at Day 21 (15 wt % in water): 97.7%
Purity(%) at Day 28 (15 wt % in water): 97.3%
Purity (%) at Day 3 (20 wt % in water): 98.4%
Purity (%) at Day 7 (20 wt % in water): 98.3%
Purity (%) at hr 0 (20 wt % in water): 98.6%
Purity(%) at Day 14 (20 wt % in water): 98.2%
Purity(%) at Day 21 (20 wt % in water): 97.8%
Purity(%) at Day 28 (20 wt % in water): 97.3%
Purity (%) at Day 3 (30 wt % in water): 98.4%
Purity (%) at Day 7 (30 wt % in water): 98.4%
Purity (%) at hr 0 (30 wt % in water): 98.5%
Purity(%) at Day 14 (30 wt % in water): 98.3%
Purity(%) at Day 21 (30 wt % in water): 97.7%
Purity(%) at Day 28 (30 wt % in water): 97.4%
Purity (%) at Day 3 (50 wt % in water): 98.4%
Purity (%) at Day 7 (50 wt % in water): 98.3%
Purity (%) at hr 0 (50 wt % in water): 98.6%
Purity(%) at Day 14 (50 wt % in water): 98.2%
Purity(%) at Day 21 (50 wt % in water): 97.8%
Purity(%) at Day 28 (50 wt % in water): 97.4%

Purity (%) at Day 3 (0.01 wt % in water): 83.4%
Purity (%) at Day 7 (0.01 wt % in water): 73.2%
Purity (%) at hr 0 (0.01 wt % in water): 97.6%
Purity(%) at Day 14 (0.01 wt % in water): 55.2%
Purity(%) at Day 21 (0.01 wt % in water): 43.1%
Purity(%) at Day 28 (0.01 wt % in water): 32.0%
Purity (%) at Day 3 (0.1 wt % in water): 93.7%
Purity (%) at Day 7 (0.1 wt % in water): 88.3%
Purity (%) at hr 0 (0.1 wt % in water): 97.7%
Purity(%) at Day 14 (0.1 wt % in water): 80.6%
Purity(%) at Day 21 (0.1 wt % in water): 71.5%
Purity(%) at Day 28 (0.1 wt % in water): 60.7%
Purity (%) at Day 3 (1 wt % in water): 95.1%
Purity (%) at Day 7 (1 wt % in water): 90.8%
Purity (%) at hr 0 (1 wt % in water): 98.0%
Purity(%) at Day 14 (1 wt % in water): 85.1%
Purity(%) at Day 21 (1 wt % in water): 80.3%
Purity(%) at Day 28 (1 wt % in water): 73.8%
Purity (%) at Day 3 (3 wt % in water): 96.0%
Purity (%) at Day 7 (3 wt % in water): 94.3%
Purity (%) at hr 0 (3 wt % in water): 98.1%
Purity(%) at Day 14 (3 wt % in water): 89.7%
Purity(%) at Day 21 (3 wt % in water): 84.8%
Purity(%) at Day 28 (3 wt % in water): 80.6%
Purity (%) at Day 3 (5 wt % in water): 97.8%
Purity (%) at Day 7 (5 wt % in water): 97.2%
Purity (%) at hr 0 (5 wt % in water): 98.2%
Purity(%) at Day 14 (5 wt % in water): 95.3%
Purity(%) at Day 21 (5 wt % in water): 93.0%
Purity(%) at Day 28 (5 wt % in water): 90.3%
Purity (%) at Day 3 (7 wt % in water): 98.3%
Purity (%) at Day 7 (7 wt % in water): 98.1%
Purity (%) at hr 0 (7 wt % in water): 98.4%
Purity(%) at Day 14 (7 wt % in water): 98.0%
Purity(%) at Day 21 (7 wt % in water): 97.5%
Purity(%) at Day 28 (7 wt % in water): 97.0%
Purity (%) at Day 3 (8 wt % in water): 98.2%
Purity (%) at Day 7 (8 wt % in water): 98.2%
Purity (%) at hr 0 (8 wt % in water): 98.3%
Purity(%) at Day 14 (8 wt % in water): 98.1%
Purity(%) at Day 21 (8 wt % in water): 97.6%
Purity(%) at Day 28 (8 wt % in water): 97.0%
Purity (%) at Day 3 (10 wt % in water): 98.3%
Purity (%) at Day 7 (10 wt % in water): 98.3%
Purity (%) at hr 0 (10 wt % in water): 98.4%
Purity(%) at Day 14 (10 wt % in water): 98.0%
Purity(%) at Day 21 (10 wt % in water): 97.5%
Purity(%) at Day 28 (10 wt % in water): 97.1%
Purity (%) at Day 3 (15 wt % in water): 98.4%
Purity (%) at Day 7 (15 wt % in water): 98.2%
Purity (%) at hr 0 (15 wt % in water): 98.4%
Purity(%) at Day 14 (15 wt % in water): 98.1%
Purity(%) at Day 21 (15 wt % in water): 97.7%
Purity(%) at Day 28 (15 wt % in water): 97.2%
Purity (%) at Day 3 (20 wt % in water): 98.4%
Purity (%) at Day 7 (20 wt % in water): 98.3%
Purity (%) at hr 0 (20 wt % in water): 98.4%
Purity(%) at Day 14 (20 wt % in water): 98.2%
Purity(%) at Day 21 (20 wt % in water): 97.6%
Purity(%) at Day 28 (20 wt % in water): 97.2%
Purity (%) at Day 3 (30 wt % in water): 98.4%
Purity (%) at Day 7 (30 wt % in water): 98.2%
Purity (%) at hr 0 (30 wt % in water): 98.5%
Purity(%) at Day 14 (30 wt % in water): 98.1%
Purity(%) at Day 21 (30 wt % in water): 97.8%
Purity(%) at Day 28 (30 wt % in water): 97.3%
Purity (%) at Day 3 (50 wt % in water): 98.3%
Purity (%) at Day 7 (50 wt % in water): 98.2%
Purity (%) at hr 0 (50 wt % in water): 98.4%
Purity(%) at Day 14 (50 wt % in water): 98.2%
Purity(%) at Day 21 (50 wt % in water): 97.7%
Purity(%) at Day 28 (50 wt % in water): 97.3%
Structure (SMILES): CCN(CC)CCOC(=O)CCCc1ccc(N(CCS(C)(=O)=O)CCS(C)(=O)=O)cc1.Cl
